Experimental data: publication PMC11439681, “The identification of potent dual-target monopolar spindle 1 (MPS1) and histone deacetylase 8 (HDAC8) inhibitors through pharmacophore modeling, molecular docking, molecular dynamics simulations, and biological evaluation” (Frontiers in Pharmacology, 2024)

How the values were obtained:
[1] = tested on: drug-resistant liver cancer cells (R-HepG2); experiment: MTT cytotoxicity assay, R-HepG2; format: cell-based; conditions: Homo sapiens, 72 h cell treatment
Description: (§1) The cells (5 × 10^4 cells/well) were incubated overnight in 96-well plates. A series of solutions containing varying concentrations of inhibitors were added and incubated at 37°C for a period of 72 h. Subsequently, the culture medium was removed, followed by a subsequent incubation of the cells with a 5 mg/mL MTT stock solution for 4 h. After centrifugation, the precipitate was solubilized in DMSO and gently shaken for 15 min. Finally, the absorbance measurement at 570 nm was completed using a microplate reader. Data analysis was performed using GraphPad Prism 6.0 software.

CDK2 = target: T1, CDK2 (Homo sapiens, UniProt P24941); experiment: In vitro selectivity assay; format: biochemical; conditions: selectivity panel
T1 construct: ICE Bioscience Inc. (assay service)
Description: (§2) The inhibitory effects of compound MPH-5 on a panel of 68 kinases and other histone deacetylases were evaluated to assess the selectivity profile of MPH-5. This experiment was conducted by ICE Bioscience Inc. (Beijing, China).

EPHB4 = EPHB4 (Homo sapiens, UniProt P54760); experiment: In vitro selectivity assay; format: biochemical; conditions: selectivity panel
Description: as §2

BLK = target: T2, BLK (Homo sapiens, UniProt P51451); experiment: In vitro selectivity assay; format: biochemical; conditions: selectivity panel
T2 construct: ICE Bioscience Inc. (assay service)
Description: as §2

HDAC6 = target: T3, HDAC6 (Homo sapiens, UniProt Q9UBN7); experiment: In vitro selectivity assay; format: biochemical; conditions: selectivity panel
T3 construct: ICE Bioscience Inc. (Beijing, China), the contract lab that ran the assay
Description: as §2

ABL2 = target: T4, ABL2 (Homo sapiens, UniProt P42684); experiment: In vitro selectivity assay; format: biochemical; conditions: selectivity panel
T4 construct: ICE Bioscience Inc. (assay service)
Description: as §2

PTK6 = target: T5, PTK6 (Homo sapiens, UniProt Q13882); experiment: In vitro selectivity assay; format: biochemical; conditions: selectivity panel
T5 construct: ICE Bioscience Inc. (contract assay provider)
Description: as §2

EPHA3 = target: T6, EPHA3 (Homo sapiens, UniProt P29320); experiment: In vitro selectivity assay; format: biochemical; conditions: selectivity panel
T6 construct: ICE Bioscience Inc. (assay service)
Description: as §2

MST1R = target: T7, MST1R (Homo sapiens, UniProt Q04912); experiment: In vitro selectivity assay; format: biochemical; conditions: selectivity panel
T7 construct: ICE Bioscience Inc. (contract assay provider)
Description: as §2

FGFR1 = FGFR1 (Homo sapiens, UniProt P11362); experiment: In vitro selectivity assay; format: biochemical; conditions: selectivity panel
Description: as §2

ERBB2 = ERBB2 (Homo sapiens, UniProt P04626); experiment: In vitro selectivity assay; format: biochemical; conditions: selectivity panel
Description: as §2

HDAC5 = target: T8, HDAC5 (Homo sapiens, UniProt Q9UQL6); experiment: In vitro selectivity assay; format: biochemical; conditions: selectivity panel
T8 construct: ICE Bioscience Inc. (contract assay provider)
Description: as §2

ZAK = ZAK (Homo sapiens, UniProt Q9NYL2); experiment: In vitro selectivity assay; format: biochemical; conditions: selectivity panel
Description: as §2

FES = FES (Homo sapiens, UniProt P07332); experiment: In vitro selectivity assay; format: biochemical; conditions: selectivity panel
Description: as §2

YES1 = YES1 (Homo sapiens, UniProt P07947); experiment: In vitro selectivity assay; format: biochemical; conditions: selectivity panel
Description: as §2

LYN = target: T9, LYN (Homo sapiens, UniProt P07948); experiment: In vitro selectivity assay; format: biochemical; conditions: selectivity panel
T9 construct: ICE Bioscience Inc. (contract assay provider)
Description: as §2

ROS1 = ROS1 (Homo sapiens, UniProt P08922); experiment: In vitro selectivity assay; format: biochemical; conditions: selectivity panel
Description: as §2

JAK3 = target: T10, JAK3 (Homo sapiens, UniProt P52333); experiment: In vitro selectivity assay; format: biochemical; conditions: selectivity panel
T10 construct: ICE Bioscience Inc. (contract assay provider)
Description: as §2

EPHB2 = target: T11, EPHB2 (Homo sapiens, UniProt P29323); experiment: In vitro selectivity assay; format: biochemical; conditions: selectivity panel
T11 construct: ICE Bioscience Inc. (assay service)
Description: as §2

PTK2 = target: T12, PTK2 (Homo sapiens, UniProt Q05397); experiment: In vitro selectivity assay; format: biochemical; conditions: selectivity panel
T12 construct: ICE Bioscience Inc. (contract assay provider)
Description: as §2

RET = target: T13, RET (Homo sapiens, UniProt P07949); experiment: In vitro selectivity assay; format: biochemical; conditions: selectivity panel
T13 construct: ICE Bioscience Inc. (contract assay provider)
Description: as §2

FGR = FGR (Homo sapiens, UniProt P09769); experiment: In vitro selectivity assay; format: biochemical; conditions: selectivity panel
Description: as §2

ABL1 = target: T14, ABL1 (Homo sapiens, UniProt P00519); experiment: In vitro selectivity assay; format: biochemical; conditions: selectivity panel
T14 construct: ICE Bioscience Inc. (assay service)
Description: as §2

KIT = target: T15, KIT (Homo sapiens, UniProt P10721); experiment: In vitro selectivity assay; format: biochemical; conditions: selectivity panel
T15 construct: ICE Bioscience Inc. (contract assay provider)
Description: as §2

HDAC7 = target: T16, HDAC7 (Homo sapiens, UniProt Q8WUI4); experiment: In vitro selectivity assay; format: biochemical; conditions: selectivity panel
T16 construct: ICE Bioscience Inc. (Beijing, China), the contract lab that ran the assay
Description: as §2

HDAC2 = target: T17, HDAC2 (Homo sapiens, UniProt Q92769); experiment: In vitro selectivity assay; format: biochemical; conditions: selectivity panel
T17 construct: ICE Bioscience Inc. (contract assay provider)
Description: as §2

PIM1 = PIM1 (Homo sapiens, UniProt P11309); experiment: In vitro selectivity assay; format: biochemical; conditions: selectivity panel
Description: as §2

EPHA4 = target: T18, EPHA4 (Homo sapiens, UniProt P54764); experiment: In vitro selectivity assay; format: biochemical; conditions: selectivity panel
T18 construct: ICE Bioscience Inc. (assay service)
Description: as §2

PDGFRA = target: T19, PDGFRA (Homo sapiens, UniProt P16234); experiment: In vitro selectivity assay; format: biochemical; conditions: selectivity panel
T19 construct: ICE Bioscience Inc. (contract assay provider)
Description: as §2

ZAP70 = ZAP70 (Homo sapiens, UniProt P43403); experiment: In vitro selectivity assay; format: biochemical; conditions: selectivity panel
Description: as §2

DDR1 = target: T20, DDR1 (Homo sapiens, UniProt Q08345); experiment: In vitro selectivity assay; format: biochemical; conditions: selectivity panel
T20 construct: ICE Bioscience Inc. (assay service)
Description: as §2

FGFR4 = FGFR4 (Homo sapiens, UniProt P22455); experiment: In vitro selectivity assay; format: biochemical; conditions: selectivity panel
Description: as §2

INSRR = INSRR (Homo sapiens, UniProt P14616); experiment: In vitro selectivity assay; format: biochemical; conditions: selectivity panel
Description: as §2

MUSK = target: T21, MUSK (Homo sapiens, UniProt O15146); experiment: In vitro selectivity assay; format: biochemical; conditions: selectivity panel
T21 construct: ICE Bioscience Inc. (contract assay provider)
Description: as §2

NTRK3 = target: T22, NTRK3 (Homo sapiens, UniProt Q16288); experiment: In vitro selectivity assay; format: biochemical; conditions: selectivity panel
T22 construct: ICE Bioscience Inc. (contract assay provider)
Description: as §2

LTK = target: T23, LTK (Homo sapiens, UniProt P29376); experiment: In vitro selectivity assay; format: biochemical; conditions: selectivity panel
T23 construct: ICE Bioscience Inc. (contract assay provider)
Description: as §2

HEK293 = experiment: MTT cytotoxicity assay, HEK293 normal cells; format: cell-based; conditions: Homo sapiens, 72 h cell treatment
Description: as §1

[2] = tested on: panel of 68 kinases and other histone deacetylases; experiment: In vitro selectivity assay, whole panel; format: biochemical; conditions: read-out: IC50 on these kinases and other histone deacetylases
Description: as §2

T18 sequence (P54764 20-986): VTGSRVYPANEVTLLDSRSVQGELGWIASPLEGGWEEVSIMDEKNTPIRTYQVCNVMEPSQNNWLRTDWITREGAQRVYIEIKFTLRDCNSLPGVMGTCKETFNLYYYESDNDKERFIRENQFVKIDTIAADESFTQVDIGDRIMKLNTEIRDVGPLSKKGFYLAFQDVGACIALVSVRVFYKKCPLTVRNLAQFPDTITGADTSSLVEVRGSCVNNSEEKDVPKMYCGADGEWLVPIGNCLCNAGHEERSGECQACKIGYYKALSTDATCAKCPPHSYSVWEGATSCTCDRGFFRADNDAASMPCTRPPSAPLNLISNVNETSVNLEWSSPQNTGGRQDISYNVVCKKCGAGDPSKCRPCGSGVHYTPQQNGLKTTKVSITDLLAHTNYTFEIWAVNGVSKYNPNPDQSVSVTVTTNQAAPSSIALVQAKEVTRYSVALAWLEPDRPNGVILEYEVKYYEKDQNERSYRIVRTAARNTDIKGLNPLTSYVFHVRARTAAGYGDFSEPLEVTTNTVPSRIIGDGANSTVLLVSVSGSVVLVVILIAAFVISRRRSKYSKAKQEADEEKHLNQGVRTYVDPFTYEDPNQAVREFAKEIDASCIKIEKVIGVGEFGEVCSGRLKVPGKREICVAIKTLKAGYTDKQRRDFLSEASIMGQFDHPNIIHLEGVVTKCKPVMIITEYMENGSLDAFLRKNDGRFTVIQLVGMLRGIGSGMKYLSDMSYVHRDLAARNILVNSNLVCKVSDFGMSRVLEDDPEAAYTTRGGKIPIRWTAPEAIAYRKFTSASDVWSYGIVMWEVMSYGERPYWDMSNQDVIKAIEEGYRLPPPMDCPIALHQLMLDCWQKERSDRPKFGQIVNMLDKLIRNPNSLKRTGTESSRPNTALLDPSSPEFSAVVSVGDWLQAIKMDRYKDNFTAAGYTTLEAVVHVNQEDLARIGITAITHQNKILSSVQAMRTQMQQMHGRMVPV
T22 sequence (Q16288 32-839): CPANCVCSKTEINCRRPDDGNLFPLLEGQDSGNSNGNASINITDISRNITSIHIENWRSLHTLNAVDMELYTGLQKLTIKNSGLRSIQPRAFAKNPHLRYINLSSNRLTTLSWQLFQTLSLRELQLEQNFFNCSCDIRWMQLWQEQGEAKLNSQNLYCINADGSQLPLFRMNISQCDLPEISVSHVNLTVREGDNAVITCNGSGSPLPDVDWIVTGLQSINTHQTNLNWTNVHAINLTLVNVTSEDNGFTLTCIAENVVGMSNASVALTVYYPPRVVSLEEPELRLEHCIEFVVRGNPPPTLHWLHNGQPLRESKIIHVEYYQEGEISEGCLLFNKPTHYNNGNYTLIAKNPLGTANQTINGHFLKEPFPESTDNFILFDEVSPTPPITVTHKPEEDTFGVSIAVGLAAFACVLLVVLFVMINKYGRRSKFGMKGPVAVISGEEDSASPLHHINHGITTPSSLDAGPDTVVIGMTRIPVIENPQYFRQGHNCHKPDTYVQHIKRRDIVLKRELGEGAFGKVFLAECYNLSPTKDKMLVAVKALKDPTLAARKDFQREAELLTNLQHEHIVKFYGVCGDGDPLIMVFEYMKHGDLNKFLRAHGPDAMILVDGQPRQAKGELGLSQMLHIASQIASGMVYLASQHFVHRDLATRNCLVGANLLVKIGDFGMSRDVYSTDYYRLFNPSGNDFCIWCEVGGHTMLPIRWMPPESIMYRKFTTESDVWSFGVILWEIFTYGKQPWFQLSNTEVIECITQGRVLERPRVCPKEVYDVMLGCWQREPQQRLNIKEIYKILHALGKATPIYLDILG
Sequence of INSRR (P14616 27-1297): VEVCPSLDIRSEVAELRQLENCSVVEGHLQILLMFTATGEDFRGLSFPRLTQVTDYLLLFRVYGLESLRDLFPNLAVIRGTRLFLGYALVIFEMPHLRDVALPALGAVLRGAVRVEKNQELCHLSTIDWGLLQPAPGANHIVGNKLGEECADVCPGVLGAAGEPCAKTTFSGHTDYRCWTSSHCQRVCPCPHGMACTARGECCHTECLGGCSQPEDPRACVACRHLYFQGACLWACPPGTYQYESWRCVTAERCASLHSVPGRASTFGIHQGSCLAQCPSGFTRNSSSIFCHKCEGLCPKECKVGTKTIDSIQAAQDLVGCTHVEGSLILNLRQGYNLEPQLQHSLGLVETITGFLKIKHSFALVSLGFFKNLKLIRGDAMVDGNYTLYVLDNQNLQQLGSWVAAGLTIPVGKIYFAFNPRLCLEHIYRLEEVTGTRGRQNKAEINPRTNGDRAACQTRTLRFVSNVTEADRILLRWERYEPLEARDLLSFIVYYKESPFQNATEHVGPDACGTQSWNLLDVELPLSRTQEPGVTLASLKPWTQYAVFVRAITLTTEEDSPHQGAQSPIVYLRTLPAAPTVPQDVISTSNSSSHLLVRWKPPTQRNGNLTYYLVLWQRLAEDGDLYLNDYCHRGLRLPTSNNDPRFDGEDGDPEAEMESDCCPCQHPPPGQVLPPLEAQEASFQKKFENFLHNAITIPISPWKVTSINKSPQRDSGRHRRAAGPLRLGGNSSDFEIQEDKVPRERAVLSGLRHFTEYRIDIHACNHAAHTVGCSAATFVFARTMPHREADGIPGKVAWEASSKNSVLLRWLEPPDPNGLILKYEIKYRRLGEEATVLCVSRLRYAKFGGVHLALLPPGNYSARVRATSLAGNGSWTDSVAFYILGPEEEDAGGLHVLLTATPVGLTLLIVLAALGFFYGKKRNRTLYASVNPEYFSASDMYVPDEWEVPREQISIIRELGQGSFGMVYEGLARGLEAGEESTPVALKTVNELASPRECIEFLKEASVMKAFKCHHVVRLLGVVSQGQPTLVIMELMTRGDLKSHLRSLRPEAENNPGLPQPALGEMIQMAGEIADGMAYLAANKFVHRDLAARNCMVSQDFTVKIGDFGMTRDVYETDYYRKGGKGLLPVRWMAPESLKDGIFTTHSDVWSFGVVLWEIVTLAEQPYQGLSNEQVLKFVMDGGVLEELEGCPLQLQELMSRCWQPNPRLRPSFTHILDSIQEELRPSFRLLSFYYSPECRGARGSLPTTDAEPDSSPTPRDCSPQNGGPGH
Sequence of FES (P07332 whole entry): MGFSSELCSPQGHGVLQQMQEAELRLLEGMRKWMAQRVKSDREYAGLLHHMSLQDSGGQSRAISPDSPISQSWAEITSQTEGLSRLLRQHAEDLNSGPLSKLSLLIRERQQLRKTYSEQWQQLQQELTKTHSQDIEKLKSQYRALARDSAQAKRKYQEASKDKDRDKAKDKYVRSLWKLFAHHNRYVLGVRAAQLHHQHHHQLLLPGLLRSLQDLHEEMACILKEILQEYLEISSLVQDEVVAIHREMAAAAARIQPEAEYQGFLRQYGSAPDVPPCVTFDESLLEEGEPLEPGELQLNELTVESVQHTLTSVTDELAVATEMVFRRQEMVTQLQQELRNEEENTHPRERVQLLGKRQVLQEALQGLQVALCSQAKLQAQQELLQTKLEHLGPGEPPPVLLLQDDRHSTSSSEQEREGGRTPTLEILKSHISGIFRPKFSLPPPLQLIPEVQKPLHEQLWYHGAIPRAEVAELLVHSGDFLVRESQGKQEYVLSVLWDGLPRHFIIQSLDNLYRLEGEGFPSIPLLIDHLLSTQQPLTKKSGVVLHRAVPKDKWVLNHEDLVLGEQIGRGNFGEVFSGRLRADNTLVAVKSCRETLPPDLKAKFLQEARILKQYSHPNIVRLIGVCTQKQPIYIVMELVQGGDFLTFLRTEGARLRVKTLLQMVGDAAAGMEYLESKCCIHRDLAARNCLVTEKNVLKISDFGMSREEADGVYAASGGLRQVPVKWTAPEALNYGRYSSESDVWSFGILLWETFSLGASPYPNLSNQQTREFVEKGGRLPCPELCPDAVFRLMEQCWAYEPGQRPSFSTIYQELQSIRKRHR
T17 sequence (Q92769 whole entry): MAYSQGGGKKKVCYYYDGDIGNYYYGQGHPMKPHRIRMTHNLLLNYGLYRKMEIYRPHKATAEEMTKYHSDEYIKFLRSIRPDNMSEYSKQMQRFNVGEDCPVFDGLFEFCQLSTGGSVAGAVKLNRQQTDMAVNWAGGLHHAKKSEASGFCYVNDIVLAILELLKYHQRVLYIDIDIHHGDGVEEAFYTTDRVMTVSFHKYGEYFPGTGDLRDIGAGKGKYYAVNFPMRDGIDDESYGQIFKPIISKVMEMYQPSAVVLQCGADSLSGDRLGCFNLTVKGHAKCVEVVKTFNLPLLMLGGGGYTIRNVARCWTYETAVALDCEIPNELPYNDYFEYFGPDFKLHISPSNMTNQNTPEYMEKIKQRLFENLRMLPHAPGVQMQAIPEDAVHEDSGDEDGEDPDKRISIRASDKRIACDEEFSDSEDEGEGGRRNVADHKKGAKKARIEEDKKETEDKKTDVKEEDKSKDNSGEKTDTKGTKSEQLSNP
Sequence of PIM1 (P11309 whole entry): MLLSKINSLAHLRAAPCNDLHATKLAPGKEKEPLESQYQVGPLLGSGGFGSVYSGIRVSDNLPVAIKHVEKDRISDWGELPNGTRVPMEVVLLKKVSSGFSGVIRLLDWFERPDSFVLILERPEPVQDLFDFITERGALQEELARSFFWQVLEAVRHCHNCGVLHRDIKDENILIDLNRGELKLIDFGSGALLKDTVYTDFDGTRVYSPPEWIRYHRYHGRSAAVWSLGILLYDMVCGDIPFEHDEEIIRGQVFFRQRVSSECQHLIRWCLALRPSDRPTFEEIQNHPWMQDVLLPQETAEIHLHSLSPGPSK

`Cn1cc(-c2cc3cnc(Nc4ccc(-c5cncn5/C=C/C(=O)NO)cc4Cl)cc3n2C(=O)OC(C)(C)C)cn1` [MPH-5] was tested, and the IC50 [1] was 0.27 µM, the IC50 (CDK2) was > 10 µM and the IC50 (EPHB4) was > 10 µM. For the same compound, the IC50 (BLK) was > 10 µM, the IC50 (HDAC6) was > 10 µM and the IC50 (ABL2) was > 10 µM. For the same compound, the IC50 (PTK6) was > 10 µM, the IC50 (EPHA3) was > 10 µM and the IC50 (MST1R) was > 10 µM. The IC50 (FGFR1) was > 10 µM, the IC50 (ERBB2) was > 10 µM and the IC50 (HDAC5) was > 10 µM. The IC50 (ZAK) was > 10 µM, the IC50 (FES) was > 10 µM and the IC50 (YES1) was > 10 µM. For the same compound, the IC50 (LYN) was > 10 µM, the IC50 (ROS1) was > 10 µM and the IC50 (JAK3) was > 10 µM. The IC50 (EPHB2) was > 10 µM, the IC50 (PTK2) was > 10 µM and the IC50 (RET) was > 10 µM. The IC50 (FGR) was > 10 µM, the IC50 (ABL1) was > 10 µM and the IC50 (KIT) was > 10 µM. The IC50 (HDAC7) was > 10 µM, the IC50 (HDAC2) was > 10 µM and the IC50 (PIM1) was > 10 µM. For the same compound, the IC50 (EPHA4) was > 10 µM, the IC50 (PDGFRA) was > 10 µM and the IC50 (ZAP70) was > 10 µM. For the same compound, the IC50 (DDR1) was > 10 µM, the IC50 (FGFR4) was > 10 µM and the IC50 (INSRR) was > 10 µM. The IC50 (MUSK) was > 10 µM, the IC50 (NTRK3) was > 10 µM and the IC50 (LTK) was > 10 µM. The IC50 (HEK293) was > 10 µM and the IC50 [2] was > 10 µM.
